In patent US10821115B2, “Compounds that inhibit Mcl-1 protein” (priority 2017, dated 2020) one finds IC50 data, which are given here for 13 compounds.

In test [1] the target is recombinant human Mcl-1 (residues 171-327) / Bim interaction (Homo sapiens (Human), UniProt Q07820). Kind of test: biochemical. It counts as binding. The note with it: read-out: Mcl-1 HTRF IC50. (In TR-FRET formats the signal depends on donor and acceptor labels being close together.)
The subject of test [2] is human multiple myeloma cell line, OPM-2. Kind of test: Cell viability assay (OPM-2 10 FBS), CellTiter-Glo. It counts as cell-based. An outline of the steps: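 Steps: plate cells at 3000/well in 10% FBS growth medium, add serially diluted compound, incubate 16 h at 37 °C with 5% CO2, add detection reagent and read luminescence after 25 min. A 4-parameter logistic model gives IC50.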

Setting [3] is: 0.1 nM Mcl-1(171-327), 0.05 nM biotin-Bim (51-76).
Where [4] appears, read: Homo sapiens, OPM-2, 16 h, read-out: OPM-2 10% FBS IC50 IP, OPM-2 cells, 10% FBS, 16 h incubation.
Setting [5] is: TR-FRET, Mcl-1(171-327) / biotin-Bim (51-76).
The mark [6] stands for this setting: Homo sapiens, OPM-2, 16 h, read-out: OPM-2 10% FBS IC50 IP, OPM-2 cells, 10% FBS, 16 h, CellTiter-Glo.

SMILES strings stand for the structures. Read-outs that look alike come from different tables or passages of the source.

Sequence of recombinant human Mcl-1 (residues 171-327) / Bim interaction (Q07820 171-327): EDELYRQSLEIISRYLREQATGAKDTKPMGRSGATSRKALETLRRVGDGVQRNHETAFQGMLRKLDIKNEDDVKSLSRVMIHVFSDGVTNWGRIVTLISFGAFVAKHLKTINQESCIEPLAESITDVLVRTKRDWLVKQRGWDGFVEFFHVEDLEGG

Turning to `C[C@@H]1[C@@H](C)C/C=C/[C@@](O)(CC#N)[C@@H]2CC[C@H]2CN2C[C@@]3(CCCc4cc(Cl)ccc43)COc3ccc(cc32)C(=O)NS1(=O)=O` [Example 100051, ((1S,3′R,6′R,7′S,8′E,11′S,12′R)-6-chloro-7′-hydroxy-11′,12′-dimethyl-13′,13′-dioxido-15′-oxo-3,4-dihydro-2H-spiro[naphthalene-1,22′-[20]oxa[13]thia[1,14]diazatetracyclo [14.7.2.0~3,6~.0~19,24~]pentacosa[8,16,18,24]tetraen]-7′-yl)acetonitrile], the IC50 in test [1] came out at 0.217 nM; in test [2] (read-out: OPM-2 10% FBS IC50 IP, OPM-2 cells, 10% FBS, 16 h, CellTiter-Glo) it was 502 nM.
Take `CO[C@]1(CN2CCC2)/C=C/C[C@H](C)[C@@H](C)S(=O)(=O)NC(=O)c2ccc3c(c2)N(C[C@@H]2CC[C@H]21)C[C@@]1(CCCc2cc(Cl)ccc21)CO3` [Example 76, (1S,3′R,6′R,7′R,8′E,11′S,12′R)-7′-(1-azetidinylmethyl)-6-chloro-7′-methoxy-11′,12′-dimethyl-3,4-dihydro-2H,15′H-spiro[naphthalene-1,22′-[20]oxa[13]thia[1,14]diazatetracyclo [14.7.2.0~3,6~.0~19,24~]pentacosa[8,16,18,24]tetraen]-15′-one 13′,13′-dioxide]: the IC50 in test [1] (setting [3]) was 3.81 nM; in test [2] (setting [4]), 670 nM.
Turning to `C[C@@H]1[C@@H](C)C/C=C/[C@@](O)(c2ncccc2F)[C@@H]2CC[C@H]2CN2C[C@@]3(CCCc4cc(Cl)ccc43)COc3ccc(cc32)C(=O)NS1(=O)=O` (single isomer, unassigned) [Example 100390], the IC50 in test [1] (setting [5]) worked out at 0.186 nM; in test [2] (setting [6]) it was 649 nM.
The like results for `CO[C@]1(C2SCCCS2)/C=C/[C@H](C)[C@H](C)CS(=O)(=O)NC(=O)c2ccc3c(c2)N(C[C@@H]2CC[C@H]21)C[C@@]1(CCCc2cc(Cl)ccc21)CO3` [Example 100569, (1S,3′R,6′R,7′R,8′E,10′S,11′S)-6-chloro-7′-(1,3-dithian-2-yl)-7′-methoxy-10′,11′-dimethyl-3,4-dihydro-2H,15′H-spiro[naphthalene-1,22′-[20]oxa[13]thia[1,14]diazatetracyclo [14.7.2.0~3,6~.0~19,24~]pentacosa[8,16,18,24]tetraen]-15′-one 13′,13′-dioxide] were, in that order, 2.48 nM and 2000 nM.
As to `CO[C@]1(CN2CCN3CCS(=O)(=O)C[C@@H]3C2)/C=C/C[C@H](C)[C@@H](C)S(=O)(=O)NC(=O)c2ccc3c(c2)N(C[C@@H]2CC[C@H]21)C[C@@]1(CCCc2cc(Cl)ccc21)CO3` (single isomer, unassigned) [Example 220], the IC50 was 0.052 nM in test [1] (setting [3]) and 42 nM in test [2] (read-out: OPM-2 10% FBS IC50 IP, OPM-2 cells, 10% FBS, 16 h incubation).
On to `CO[C@]1(c2ncccn2)CCC[C@H](C)[C@@H](C)S(=O)(=O)NC(=O)c2ccc3c(c2)N(C[C@@H]2CC[C@H]21)C[C@@]1(CCCc2cc(Cl)ccc21)CO3` [Example 100276, (1S,3′R,6′R,7′R,11′S,12′R)-6-chloro-7′-methoxy-11′,12′-dimethyl-7′-(2-pyrimidinyl)-3,4-dihydro-2H,15′H-spiro[naphthalene-1,22′-[20]oxa[13]thia[1,14]diazatetracyclo [14.7.2.0~3,6~.0~19,24~]pentacosa[16,18,24]trien]-15′-one 13′,13′-dioxide], for which the IC50 in test [1] (setting [5]) was determined as 0.326 nM; in test [2] (setting [6]), 1530 nM.
Turning to `C=C(F)C[C@]1(O)/C=C/C[C@H](C)[C@@H](C)S(=O)(=O)NC(=O)c2ccc3c(c2)N(C[C@@H]2CC[C@H]21)C[C@@]1(CCCc2cc(Cl)ccc21)CO3` [Example 100565, (1S,3′R,6′R,7′S,8′E,11′S,12′R)-6-chloro-7′-(2-fluoro-2-propen-1-yl)-7′-hydroxy-11′,12′-dimethyl-3,4-dihydro-2H,15′H-spiro[naphthalene-1,22′-[20]oxa[13]thia[1,14]diazatetracyclo [14.7.2.0~3,6~.0~19,24~]pentacosa[8,16,18,24]tetraen]-15′-one 13′,13′-dioxide], the half-maximal inhibitory concentration (IC50) was 1.54 nM in test [1] (setting [5]) and 2060 nM in test [2] (setting [6]).
Regarding `CO[C@]1(C=O)/C=C/C[C@H](C)[C@@H](Cc2ccccc2)S(=O)(=O)NC(=O)c2ccc3c(c2)N(C[C@@H]2CC[C@H]21)C[C@@]1(CCCc2cc(Cl)ccc21)CO3` (single isomer, unassigned) [Example 100575], the IC50 amounted to 1.3 nM in test [1] (setting [5]) and 2500 nM in test [2] (setting [6]).
As for `CO[C@@]1(CN2CC3(C2)CN(C(=O)OC(C)(C)C)C3)/C=C/C[C@H](C)[C@@H](C)S(=O)(=O)NC(=O)c2ccc3c(c2)N(C[C@@H]2CC[C@H]21)C[C@@]1(CCCc2cc(Cl)ccc21)CO3` [Example 204, tert-butyl 6-(((1S,3′R,6′R,7′S,8′E,11′S, 12′R)-6-chloro-7′-methoxy-11′,12′-dimethyl-13′,13′-dioxido-15′-oxo-3,4-dihydro-2H-spiro[naphthalene-1,22′-[20]oxa[13]thia[1,14]diazatetracyclo [14.7.2.0~3,6~.0~19,24~]pentacosa[8,16,18,24]tetraen]-7′-yl)methyl)-2,6-diazaspiro[3.3]heptane-2-carboxylate], the IC50 was found to be 0.23 nM in test [1] (setting [3]) and 319 nM in test [2] (setting [4]).
Consider `CO[C@]1(CN2CCN3CCOC[C@@H]3C2)/C=C/C[C@H](C)[C@@H](CC2CCC2)S(=O)(=O)NC(=O)c2ccc3c(c2)N(C[C@@H]2CC[C@H]21)C[C@@]1(CCCc2cc(Cl)ccc21)CO3` [Example 38], for which the IC50 in test [1] (setting [3]) was 0.342 nM; in test [2] (setting [4]), 489 nM.
In the same order, the values of `CCO[C@]1(CN2CCN3CCCC[C@@H]3C2)/C=C/C[C@H](C)[C@@H](C)S(=O)(=O)NC(=O)c2ccc3c(c2)N(C[C@@H]2CC[C@H]21)C[C@@]1(CCCc2cc(Cl)ccc21)CO3` [Example 108, (1S,3′R,6′R,7′R,8′E,11′S,12′R)-6-chloro-7′-ethoxy-11′,12′-dimethyl-7′-((9aR)-octahydro-2H-pyrido[1,2-a]pyrazin-2-ylmethyl)-3 ,4-dihydro-2H,15′H-spiro[naphthalene-1,22′-[20]oxa[13]thia[1,14]diazatetracyclo [14.7.2.0~3,6~.0~19,24~]pentacosa[8,16,18,24]tetraen]-15′-one 13′,13′-dioxide] are 0.198 nM and 116 nM.
With `CO[C@@]1(CN2CCN3C(=O)OC[C@@H]3C2)/C=C/C[C@H](C)[C@@H](C)S(=O)(=O)NC(=O)c2ccc3c(c2)N(C[C@@H]2CC[C@H]21)C[C@@]1(CCCc2cc(Cl)ccc21)CO3` [Example 63, (1S,3′R,6′R,7′S,8′E,11′S,12′R)-6-chloro-7′-methoxy-11′,12′-dimethyl-7′-(((8aS)-3-oxotetrahydro[1,3]oxazolo[3,4-a]pyrazin-7(1H)-yl)methyl)-3,4-dihydro-2H,15′H-spiro[naphthalene-1,22′-[20]oxa[13]thia[1,14]diazatetracyclo [14.7.2.0~3,6~.0~19,24~]pentacosa[8,16,18,24]tetraen]-15′-one 13′,13′-dioxide], the half-maximal inhibitory concentration (IC50) stood at 0.173 nM in test [1] (setting [3]) and 582 nM in test [2] (setting [4]).
As for `CO[C@@]1(CN2CCN(Cc3ncon3)CC2)/C=C/C[C@H](C)[C@@H](C)S(=O)(=O)NC(=O)c2ccc3c(c2)N(C[C@@H]2CC[C@H]21)C[C@@]1(CCCc2cc(Cl)ccc21)CO3` [Example 321, (1S,3′R,6′R,7′S,8′E,11′S,12′R)-6-chloro-7′-methoxy-11′,12′-climethyl-7′-((4-(1,2,4-oxadiazol-3-ylmethyl)-1-piperazinyl)methyl)-3,4-dihydro-2H,15′H-spiro[naphthalene-1,22′-[20]oxa[13]thia[1,14]diazatetracyclo [14.7.2.0~3,6~.0~19,24~]pentacosa[8,16,18,24]tetraen]-15′-one 13′,13′-dioxide], the values for the IC50 in test [1] (setting [3]) and in test [2] (setting [4]) were 0.145 nM and 92 nM, respectively.

What is called IC50 is the midpoint of a concentration-inhibition curve.
